We go through eight compounds from paper PMC2582943 (Antiviral Research, 2008).

Several values for one entry are separate records, joined by “and”; a condition that tells them apart may be missing. Identical values can stand only once. Entries after “also recorded” stand apart in the source; their conditions may differ. Counter-ions that a name gives are not always drawn. Like-named read-outs stand apart in the source and are kept apart here.

For data set [1], the system named is SARS-CoV (strain Urbani). As to the kind of experiment: microbe, parasite or virus in culture. It counts as cell-based.
For data set [2], the system named is SARS-CoV (strain Urbani). As to the kind of experiment: microbe, parasite or virus in culture. It counts as cell-based. The source holds these as a separate data set.
The test system of the next data set is Vero 76 cells. In words: cells. The class given is cell-based, African green monkey.
For data set [3], the system named is SARS-CoV Frankfurt-1 strain. As to the kind of experiment: microbe, parasite or virus in culture. It counts as cell-based.
The subject of data set [4] is SARS-CoV CHUK-W1 strain. In words: microbe, parasite or virus in culture. It counts as cell-based.
The subject of data set [5] is SARS-CoV Toronto-2 strain. In words: microbe, parasite or virus in culture. It counts as cell-based.
Data set [6] concerns SARS-CoV Frankfurt-1 strain. As to the kind of experiment: microbe, parasite or virus in culture. The conditions noted are these: Severe acute respiratory syndrome coronavirus, Vero 76, read-out: VYR assay EC90 ± S.D. The class given is cell-based.
For data set [7], the system named is SARS-CoV CHUK-W1 strain. As to the kind of experiment: microbe, parasite or virus in culture. The class given is cell-based. Conditions: Severe acute respiratory syndrome coronavirus, Vero 76, read-out: VYR assay EC90 ± S.D.
Data set [8] deals with SARS-CoV Toronto-2 strain. In words: microbe, parasite or virus in culture. It counts as cell-based. Conditions: Severe acute respiratory syndrome coronavirus, Vero 76, read-out: VYR assay EC90 ± S.D.
The subject of another data set is SARS-CoV (Urbani). Details: species or system BALB/c mice. The conditions noted are these: mouse, in vivo.
The next data set has as its system BALB/c mice. Conditions: mouse, in vivo, ip.
In another data set the test system is lungs. Conditions: mouse, in vivo.
The next data set deals with mice. The conditions noted are these: mouse, in vivo, ip; cited from earlier work.
The mark [9] stands for this setting: read-out: Neutral red uptake assay EC50.
The mark [10] stands for this setting: read-out: Virus yield reduction assay EC90.
[11] abbreviates: read-out: Neutral red uptake assay IC50.
Where [12] appears, read: read-out: Virus yield reduction assay IC50.
The mark [13] stands for this setting: Chlorocebus sabaeus, Vero 76, read-out: Neutral red uptake assay IC50.
Setting [14] is: Severe acute respiratory syndrome coronavirus, Vero 76, read-out: Neutral red uptake assay EC50.
Setting [15] is: Severe acute respiratory syndrome coronavirus, Vero 76, read-out: Virus yield reduction assay EC90.
The mark [16] stands for this setting: Chlorocebus sabaeus, Vero 76, read-out: Virus yield reduction assay IC50.
[17] abbreviates: Severe acute respiratory syndrome coronavirus, Vero 76, read-out: Neutral red uptake assay EC50 ± S.D.

As for `CCOS(=O)(=O)[O-].CC[n+]1c2ccccc2nc2ccccc21` [Phenazine ethosulfate], the “Neutral red uptake assay SI” value with SARS-CoV (strain Urbani) [1] was 1.3. For the same compound, the EC50 with SARS-CoV (strain Urbani) [1] (setting [9]) is 5.2 ± 2.9 µM. For the same compound, the “Virus yield reduction assay SI” value in the data set with SARS-CoV (strain Urbani) [2] is given as 1.1. In addition, the EC90 in the data set on SARS-CoV (strain Urbani) [2] (setting [10]) amounted to 6.1 ± 4.3 µM. For the same compound, the IC50 in the data set on Vero 76 cells (setting [11]) and with Vero 76 cells (setting [12]) was 6.6 ± 4.7 µM in each case.

Take `c1ccc2c(c1)Nc1ccccc1S2` [Phenothiazine]: the “Neutral red uptake assay SI” value in the data set on SARS-CoV (strain Urbani) [1] turned out to be 2.6. Further, the IC50 in the data set on Vero 76 cells (setting [13]) worked out at 56.5 ± 61.5 µM.

Regarding `c1ccc2c(c1)Oc1ccccc1S2` [Phenoxathiin], the “Neutral red uptake assay SI” value in the data set on SARS-CoV (strain Urbani) [1] was determined as 1.1. Also, in the data set with SARS-CoV (strain Urbani) [1] (setting [14]), the EC50 is 763 ± 475 µM. The “Virus yield reduction assay SI” value in the data set on SARS-CoV (strain Urbani) [2] amounted to 1.3. Also, the EC90 in the data set with SARS-CoV (strain Urbani) [2] (setting [15]) worked out at 752 ± 497 µM. Also, the IC50 in the data set on Vero 76 cells (setting [13]) turned out to be 858 ± 208 µM; with Vero 76 cells (setting [16]), 968 ± 65 µM.

`c1ccc2c(c1)Nc1ccccc1O2` [Phenoxazine]: in the data set on SARS-CoV (strain Urbani) [1], the “Inhibition of virus replication in vitro (in words)” value was “essentially inactive” and the “Neutral red uptake assay SI” value was under 1. Further, the IC50 in the data set with Vero 76 cells (setting [13]) was 74.5 ± 20.2 µM.

As to `CN(C)CCCN1c2ccccc2Sc2ccccc21` [Promazine, 10-(3-(dimethylamino)propyl)phenothiazine], the “Neutral red uptake assay SI” value in the data set on SARS-CoV (strain Urbani) [1] was 1.2 and <1; in [3], 1.6; in the data set on SARS-CoV CHUK-W1 strain [4], 2.2; in [5], 1.5. Further, the EC50 is 10.8 ± 8.1 µM with SARS-CoV (strain Urbani) [1] (setting [14]); 14 ± 6.1 µM in the data set on SARS-CoV (strain Urbani) [1] (setting [17]); 21 ± 15.4 µM in data set [3] (setting [17]); 15.6 ± 8.5 µM in the data set with SARS-CoV CHUK-W1 strain [4] (setting [17]); 22.6 ± 12.8 µM in data set [5] (setting [17]). Moreover, in the data set with SARS-CoV (strain Urbani) [2], the “Virus yield reduction assay SI” value is on record as 2.1. Also, the EC90 is 7.8 ± 3.1 µM with SARS-CoV (strain Urbani) [2] (Severe acute respiratory syndrome coronavirus, Vero 76, read-out: VYR assay EC90 ± S.D.); 8.3 ± 2.8 µM in the data set on SARS-CoV (strain Urbani) [2] (setting [15]); 11.6 ± 6.3 µM in data set [6]; 16.5 ± 11.1 µM in the data set with SARS-CoV CHUK-W1 strain [7]; 20.7 ± 9.5 µM in data set [8]. In addition, the values for the IC50 with Vero 76 cells (setting [13]) and with Vero 76 cells (setting [16]) were 13.5 ± 6.2 µM and 18.2 ± 14.6 µM, respectively. The “Virucidal activity (virus titer reduction after exposure)” value in the data set with SARS-CoV was “did not result in virus titer reduction”. In addition, the “Duration of virus replication in the lungs (in words)” value with SARS-CoV (Urbani) is “prolonged virus replication to 14 days; also recorded: significantly prolonged”. Moreover, the “Virus titer ± S.D., Day 3” value in the data set on SARS-CoV (Urbani) is 5.6 ± 1.0 Log10 CCID50/g and 5.6 ± 0.4 Log10 CCID50/g and 5.7 ± 0.3 Log10 CCID50/g and 5.6 ± 0.0 Log10 CCID50/g and 5.8 ± 0.4 Log10 CCID50/g and 6.0 ± 0.6 Log10 CCID50/g; in the data set on SARS-CoV (Urbani) (ip) it was 5.6 ± 0.0 Log10 CCID50/g and 6.0 ± 0.6 Log10 CCID50/g and 5.4 ± 0.1 Log10 CCID50/g. In the data set on SARS-CoV (Urbani), the “Virus titer ± S.D., Day 14” value was 3.4 ± 0.1 Log10 CCID50/g and 3.4 ± 0.0 Log10 CCID50/g. Also, the “Inhibition of virus replication in the lungs, therapeutic treatment (in words)” value in the data set on SARS-CoV (Urbani) (ip) was “not efficacious”. The “Reduction of viral replication in the lungs at day 3 (in words)” value in the data set with SARS-CoV (Urbani) (ip) is “did not reduce virus lung titers; also recorded: no significant reduction”. Also, the “Virus titer ± S.D., Day 7” value in the data set with SARS-CoV (Urbani) (ip) is listed as under 0.75 Log10 CCID50/g. Besides, the figures for the Lethality entry in the data set on BALB/c mice (BALB/c) and in the data set with BALB/c mice were “lethal to all mice by day 3” and “somewhat lethal”, respectively. In the data set with lungs, the “Histopathological examination of lungs” value was “no signs of pathology”. Besides, in the data set on mice, the LD50 is given as 140 mg/(kg day).

Consider `CCC(=O)c1ccc2c(c1)N(CCCN(C)C)c1ccccc1S2` [Propionylpromazine·HCl], for which, in the data set with SARS-CoV (strain Urbani) [1], the “Inhibition of virus replication in vitro (in words)” value is “essentially inactive” and the “Neutral red uptake assay SI” value is listed as under 1. The EC50 in the data set on SARS-CoV (strain Urbani) [1] (setting [14]) stood at 24.3 ± 15.6 µM. Also, the “Virus yield reduction assay SI” value in the data set with SARS-CoV (strain Urbani) [2] is given as 1.4. The IC50 in the data set on Vero 76 cells (setting [16]) was determined as 19.3 ± 2.2 µM.

Consider `CN1CCN(CCCN2c3ccccc3Sc3ccc(C(F)(F)F)cc32)CC1` [Trifluoperazine dimaleate], for which, in the data set on SARS-CoV (strain Urbani) [1], the “Neutral red uptake assay SI” value was 1.3. In the data set on SARS-CoV (strain Urbani) [1] (setting [14]), the EC50 turned out to be 7.3 ± 4.7 µM. The “Virus yield reduction assay SI” value in the data set with SARS-CoV (strain Urbani) [2] is under 1. For the same compound, the EC90 in the data set with SARS-CoV (strain Urbani) [2] (setting [10]) was determined as 10.2 ± 4.4 µM. In addition, the values for the IC50 in the data set on Vero 76 cells (setting [13]) and with Vero 76 cells (setting [16]) were 9.5 ± 3.1 µM and 8 ± 2.1 µM, respectively.

As for `CN(C)CCCN1c2ccccc2Sc2ccc(C(F)(F)F)cc21.Cl` [Trifluopromazine·HCl], the “Neutral red uptake assay SI” value with SARS-CoV (strain Urbani) [1] was 1.4. Further, the EC50 with SARS-CoV (strain Urbani) [1] (setting [9]) worked out at 13.3 ± 5.8 µM. The “Virus yield reduction assay SI” value with SARS-CoV (strain Urbani) [2] came to 1.4. Moreover, the EC90 in the data set with SARS-CoV (strain Urbani) [2] (setting [10]) stood at 12.8 ± 1.9 µM. In addition, the IC50 in the data set with Vero 76 cells (setting [11]) and with Vero 76 cells (setting [12]) was 18 ± 5.6 µM in each case.
